Laboratory results as given in patent US9206448B2, “Extraction solvents derived from oil for alcohol removal in extractive fermentation” (Butamax Advanced Biofuels LLC, priority 2010, dated 2015).
Values joined by “and” are separate entries in the source; they are usually repeats but may differ in a detail not shown here. Equal values may be shown once. Blank lines part the entries; values can stand above or below the compound they belong to.

Columns and labels:
strain NGCI-070 = assay: Extractive fermentation, examples GLNOR661A-666A, 690A-695A, 721A-726A, 749A-754A; conditions: pH 5.5, fermentation broth
Protocol: (§1) Fermentation conditions: 30% pO2; temperature: 30° C.; pH 5.5 (unless noted otherwise); initial batch glucose: 20 g/L, maintained during production.
(§2) Both HPLC and GC analyses were used for the quantization of isobutanol in the aqueous phase and solvent phase respectively. Isobutanol in the aqueous was measured after filtration through a 0.2 um nylon filter with a HPLC (Agilent 1100, Agilent, Santa Clara, Calif.) under the following conditions: • Column: Bio-Rad, Aminex HPX-87H, No. 125-0143 • Mobile Phase: […] • Injection Volume: 10 uL • Flow Rate: 0.6 mL/min • Run Time: 22.5 minutes • Column Temperature: 65° C. • Detectors: Refractive Index • Detector Temperature: 40° C. • UV Detection: 210 nm, 4 nm bandwidth, Ref 360 nm, 100 nm bandwidth.
(§3) The solvent phase was measured with a GC (HP6890, Agilent, Santa Clara, Calif.) under the following conditions: • Column: J&W Scientific DB Waxter (50 m×0.32 mm ID, 1 um film) • Gas Carrier: Helium 4 mL/min • Injection Volume: 2 uL • Make Up Flow Rate: 40 mL/min • Run Time: 29 minutes • Oven Temperature: 40° C. for 5 min, 40° C. to 230° C. @10° C./min., 5 min 230° C. • Injector Split: 1:5 @ 250° C. • Flame Ionization Detection: 250° C.
(§4) The extractants were added to the fermentor broth at time zero exposing the culture to the solvent for the duration of the fermentation. Isobutanol concentrations in both the aqueous phase and organic phase were measured to calculate the partitioning coefficient of the extraction solvent. Glucose utilization was used to determine the biocompatability of the microorganism to the extractant.
(§5) The fermentations were carried out as described with the strain NGCI-065. The inoculum was prepared in two stages and incubated at 30° C. and 250 rpm in an incubator shaker (Innova 4200, New Brunswick Scientific, Edison, N.J.). The first stage or pre-seed was inoculated from a frozen glycerol seed stock, two vials were placed into a 250 mL flask with 30 mL of filter sterilized pre-seed media (Table 4) and grown for 24 hours to an OD of approximately 2. 15 mL of the pre-seed was then transferred to a 2 L flask with 270 mL of filter sterilized seed media (Table 5) for the second stage which was incubated for 24 hours. 30 mL of filter sterilized 10× YEP and 300 mL of filter sterilized 90-95% oleyl alcohol was then added and incubated for an additional 24 hours to a final OD of approximately 5-10 in the aqueous phase of the seed culture. For examples GLNOR639 and GLNOR640, the pH was 4.5.
Fermentation vessels (Applikon AD1010 Bioreactor, Applikon Biotechnology, Dover, N.J.) were sterilized with diH2O for 30 minutes (Amsco Renaissance 3033 Revas Steam Sterilizer, Steris Corporation, Mentor, Ohio). Once the vessels were finished sterilization in the autoclave and cooled to 30° C., the sterile diH2O was removed and the filter sterilized fermentation media was added to a volume of 280 mL. 70 mL of the aqueous phase from the second stage seed flasks was added to the fermentation vessel for a final aqueous volume of 350 mL. Immediately after inoculation, 100 mL of 10× YEP media supplementation was added as well as 450 mL of the respective extraction solvent for a final solvent to broth ratio of approximately 1:1. Fermentation set-point conditions were temperature 30° C., pO2 30%, pH 5.5 for GLNOR635A-638A and pH 4.5 for GLNOR639A-640A. The fermentation was sampled approximately every 8 hours from the time of inoculation to monitor glucose concentration, which was maintained between 5-20 g/L through the addition of 50% w/w glucose solution, and analyzed for isobutanol accumulation in both the aqueous phase and the extractant phase. Enough sample volume was taken at each time point to obtain a sample from both of the phases, then those samples were centrifuged in order to ensure a clean cut of each.
The examples in this set were performed the same as in the previous examples GLNOR635A-640A with the exception of the strain, pH, and supplement addition at time zero.

strain NGCI-065 = assay: Extractive fermentation, examples GLNOR635A-640A
Protocol: as §1, §2, §3, §4, §5
Fermentation vessels (Applikon AD1010 Bioreactor, Applikon Biotechnology, Dover, N.J.) were sterilized with diH2O for 30 minutes (Amsco Renaissance 3033 Revas Steam Sterilizer, Steris Corporation, Mentor, Ohio). Once the vessels were finished sterilization in the autoclave and cooled to 30° C., the sterile diH2O was removed and the filter sterilized fermentation media was added to a volume of 280 mL. 70 mL of the aqueous phase from the second stage seed flasks was added to the fermentation vessel for a final aqueous volume of 350 mL. […] The fermentation was sampled approximately every 8 hours from the time of inoculation to monitor glucose concentration, which was maintained between 5-20 g/L through the addition of 50% w/w glucose solution, and analyzed for isobutanol accumulation in both the aqueous phase and the extractant phase. […]

[1] = test system: Saccharomyces butanologen NGCI-070; assay: Shake flask incubation with fermentation broth, glucose consumption followed over time; assay type: cell-based, Saccharomyces cerevisiae; conditions: 3 parts broth to 1 part extractant
Protocol: Fatty amide/fatty acid aqueous ammonia preparation (1), and a preparation (1 a) constituted by preparation (1) mixed 1:1 with pure corn oil fatty acid (equivalent to 1:2 fatty amide:fatty acid) were incubated in shake flasks with fermentation broth containing the Saccharomyces butanologen NGCI-070 at a ratio of 3 parts broth to 1 part amide/acid mixture. […] Starting at a glucose concentration of 8.35 g/L, the shake flasks were then incubated for 25 h on an incubator shaker and the consumption of glucose followed as a function of time.

SMILES: CCCCCCC(CO)CCCC (stereo not drawn) [Isofol ™ 12, 2-butyl-1-octanol]
Kp (solvent partition coefficient) (strain NGCI-070; listed as GLNOR749): 4.05
Kp (solvent partition coefficient) (strain NGCI-070; listed as GLNOR750): 4.22

Kp (solvent partition coefficient) (strain NGCI-065; pH 4.5, fermentation broth, listed as GLNOR639): 2.54
Kp (solvent partition coefficient) (strain NGCI-065; pH 4.5, fermentation broth, listed as GLNOR640): 2.51
Kp (solvent partition coefficient) (strain NGCI-065; pH 5.5, fermentation broth, listed as GLNOR637): 2.64
Kp (solvent partition coefficient) (strain NGCI-065; pH 5.5, fermentation broth, listed as GLNOR638): 2.56
Kp (solvent partition coefficient) (strain NGCI-070; listed as GLNOR665): 2.61
Kp (solvent partition coefficient) (strain NGCI-070; listed as GLNOR666): 2.51
SMILES: CCCCCCCC/C=C\CCCCCCCC(=O)O [Oleic Acid]

SMILES: CCCCCCCC/C=C\CCCCCCCCO [Oleyl Alcohol]
Glucose conc. ([1]; 18 hrs): 4.26 g/L and 4.46 g/L
Glucose conc. ([1]; 25 hrs): 0 g/L
Glucose conc. ([1]; Time = 0): 8.35 g/L
Kp (solvent partition coefficient) (strain NGCI-065; pH 5.5, fermentation broth): 3.38
Kp (solvent partition coefficient) (strain NGCI-070; listed as GLNOR661): 3.35
Kp (solvent partition coefficient) (strain NGCI-070; listed as GLNOR690): 3.74
Kp (solvent partition coefficient) (strain NGCI-070; listed as GLNOR691): 3.77
